From patent publication US5484717A, “Antibiotic 31F508α1, 31F508α2, 31F508β1, 31F508β2” (American Cyanamid Company, priority 1995, dated 1996)
Converted amounts (≈) assume the structure as drawn. Read-outs that look alike come from different tables or passages of the source.

Experiments:
[1] = system: B. cereus (Bacto); assay: In vitro antibacterial activity, agar dilution MIC; type: cell-based; settings: Bacillus cereus, 18 h, read-out: Minimum Inhibitory Concentration
Experimental: (§1) The in vitro antibacterial activity of 31F508α1 and α2 is determined against a spectrum of gram-positive and gram-negative bacteria by a standard agar dilution method. Mueller-Hinton agar with and without 5% sheep blood and two-fold decreasing concentrations of either 31F508α1 or α2 are poured into petri dishes. The agar surfaces are inoculated with 1 to 5×10^4 colony forming units of bacteria by means of the Steers replicating device. The lowest concentration of antibiotic that inhibits growth of a bacterial strain after 18 hours incubation is recorded as the minimal inhibitory concentration for that strain. The results are given in Table V with sheeps blood added to the agar.

[2] = system: CNS (4615); assay: In vitro antibacterial activity, agar dilution MIC; type: cell-based; settings: 18 h
Experimental: as §1

[3] = system: CNS (ID-3120); assay: In vitro antibacterial activity, agar dilution MIC; type: cell-based; settings: 18 h
Experimental: as §1

[4] = system: CNS (ID-3276); assay: In vitro antibacterial activity, agar dilution MIC; type: cell-based; settings: 18 h, read-out: Minimum Inhibitory Concentration, CNS (ID-3276), without sheep blood
Experimental: as §1

[5] = system: CNS (ID-3941); assay: In vitro antibacterial activity, agar dilution MIC; type: cell-based; settings: 18 h
Experimental: as §1

[6] = system: E. Avium (ID-3953); assay: In vitro antibacterial activity, agar dilution MIC; type: cell-based; settings: Enterococcus avium, 18 h, read-out: Minimum Inhibitory Concentration
Experimental: as §1

[7] = system: E. coli (ATCC 25922); assay: In vitro antibacterial activity, agar dilution MIC; type: cell-based; settings: 18 hours
Experimental: as §1

[8] = system: E. coli (J2175); assay: In vitro antibacterial activity, agar dilution MIC; type: cell-based; settings: Escherichia coli, 18 h, read-out: Minimum Inhibitory Concentration
Experimental: as §1

[9] = system: E. coli (J2445); assay: In vitro antibacterial activity, agar dilution MIC; type: cell-based; settings: Escherichia coli, 18 h, read-out: Minimum Inhibitory Concentration
Experimental: as §1

[10] = system: E. faecalis (12201); assay: In vitro antibacterial activity, agar dilution MIC; type: cell-based; settings: Enterococcus faecalis, 18 h, read-out: Minimum Inhibitory Concentration
Experimental: as §1

[11] = system: E. faecalis (ATCC 29212); assay: In vitro antibacterial activity, agar dilution MIC; type: cell-based; settings: Enterococcus faecalis, ATCC29212, 18 h, read-out: Minimum Inhibitory Concentration
Experimental: as §1

[12] = system: E. faecalis (ID-1829); assay: In vitro antibacterial activity, agar dilution MIC; type: cell-based; settings: Enterococcus faecalis, 18 h, read-out: Minimum Inhibitory Concentration
Experimental: as §1

[13] = system: E. faecalis (ID-2131); assay: In vitro antibacterial activity, agar dilution MIC; type: cell-based; settings: Enterococcus faecalis, 18 h, read-out: Minimum Inhibitory Concentration
Experimental: as §1

[14] = system: E. faecalis (ID-4168); assay: In vitro antibacterial activity, agar dilution MIC; type: cell-based; settings: Enterococcus faecalis, 18 h, read-out: Minimum Inhibitory Concentration
Experimental: as §1

[15] = system: E. faecium (12202); assay: In vitro antibacterial activity, agar dilution MIC; type: cell-based; settings: Enterococcus faecium, 18 h, read-out: Minimum Inhibitory Concentration
Experimental: as §1

[16] = system: E. faecium (ID-3301); assay: In vitro antibacterial activity, agar dilution MIC; type: cell-based; settings: Enterococcus faecium, 18 h, read-out: Minimum Inhibitory Concentration
Experimental: as §1

[17] = system: E. faecium (ID-4133); assay: In vitro antibacterial activity, agar dilution MIC; type: cell-based; settings: 18 hours
Experimental: as §1

[18] = system: M. morganii (VGH 84-11); assay: In vitro antibacterial activity, agar dilution MIC; type: cell-based; settings: Morganella morganii, 18 h, read-out: Minimum Inhibitory Concentration
Experimental: as §1

[19] = system: P. aeruginosa (ATCC 27853); assay: In vitro antibacterial activity, agar dilution MIC; type: cell-based; settings: 18 hours
Experimental: as §1

[20] = system: S. Pyogenes (ID-3187); assay: In vitro antibacterial activity, agar dilution MIC; type: cell-based; settings: Streptococcus pyogenes, 18 h, read-out: Minimum Inhibitory Concentration
Experimental: as §1

[21] = system: S. agalactiae (ID-4079); assay: In vitro antibacterial activity, agar dilution MIC; type: cell-based; settings: Streptococcus agalactiae
Experimental: as §1

[22] = system: S. lutea (ATCC 9341); assay: In vitro antibacterial activity, agar dilution MIC; type: cell-based; settings: 18 hours
Experimental: as §1

[23] = system: Staphylococcus aureus (ATCC 29213); assay: In vitro antibacterial activity, agar dilution MIC; type: cell-based; settings: ATCC29213, 18 h, read-out: Minimum Inhibitory Concentration
Experimental: as §1

[24] = system: Staphylococcus aureus (ID-2371); assay: In vitro antibacterial activity, agar dilution MIC; type: cell-based; settings: 18 h, read-out: Minimum Inhibitory Concentration
Experimental: as §1

[25] = system: Staphylococcus aureus (ID-2727); assay: In vitro antibacterial activity, agar dilution MIC; type: cell-based; settings: 18 h, read-out: Minimum Inhibitory Concentration
Experimental: as §1

[26] = system: Staphylococcus aureus (ID-3105); assay: In vitro antibacterial activity, agar dilution MIC; type: cell-based; settings: 18 h, read-out: Minimum Inhibitory Concentration
Experimental: as §1

[27] = system: Staphylococcus aureus (ID-4379); assay: In vitro antibacterial activity, agar dilution MIC; type: cell-based; settings: 18 h, read-out: Minimum Inhibitory Concentration
Experimental: as §1

[28] = system: Staphylococcus aureus (MEMC-89-4); assay: In vitro antibacterial activity, agar dilution MIC; type: cell-based; settings: 18 h, read-out: Minimum Inhibitory Concentration
Experimental: as §1

[29] = system: Staphylococcus aureus (SMITH); assay: In vitro antibacterial activity, agar dilution MIC; type: cell-based; settings: 18 h, read-out: Minimum Inhibitory Concentration
Experimental: as §1

[30] = system: Staphylococcus haemolyticus (ID-4061); assay: In vitro antibacterial activity, agar dilution MIC; type: cell-based; settings: 18 h, read-out: Minimum Inhibitory Concentration
Experimental: as §1

[31] = system: Streptococcus pneumoniae (ID-4444); assay: In vitro antibacterial activity, agar dilution MIC; type: cell-based; settings: 18 h, read-out: Minimum Inhibitory Concentration
Experimental: as §1

[32] = Stability (conversion in neutral or basic solution; decomposition on drying); type: physicochemical; settings: listed as α1
Experimental: The crude product is then separated into the α1, α2, β1 and β2 components and further purified by high performance liquid chromatography on a reverse-phase column equilibrated with 0.1% trifluoroacetic acid in water followed by slution with an acetonitrile gradient to 10%. Active fractions are pooled and freeze dried. Freeze dried fractions are dissolved in 0.01M hydrochloric acid, applied to a reverse phase column and eluted with an acetonitrile gradient to 10% resolves the two components α1 and α2. […] Beta is the quinone form of α1 or α2 having lost hydrogens from the oxygens connected to carbon10 and 13.
The freeze dried material is suspended in methanol and the insolubles removed by filtration. The soluble material is concentrated to dryness and the concentrate dissolved in 1% trifluoroacetic acid in water. Insolubles are removed by centrifugation. The soluble material is loaded onto a preparative reverse phase C18 column equilibrated with 0.1% trifluoroacetic acid in water. The column is eluted with an acetonitrile gradient to 10%. Active fractions containing the alpha component are pooled and freeze dried. Active fractions containing the beta component are adjusted to pH 8 with solid ammonium bicarbonate and extracted with methylene chloride. The beta component is stored in methylene chloride as drying leads to rapid decomposition. […]

## COc1c(C)c(O)c2c(c1O)C1COC3C4CC5C(N4)C(C2N2CCOC52)N13 (stereo not drawn) [31F508α1]
[1]; with 5% sheep blood
  MIC: 1 µg/mL (≈ 2.58 µM)
[1]; without sheep blood
  MIC: 0.5 µg/mL (≈ 1.29 µM)
[2]; read-out: Minimum Inhibitory Concentration, CNS (4615), with 5% sheep blood
  MIC: 0.03 µg/mL (≈ 0.0774 µM)
[2]; read-out: Minimum Inhibitory Concentration, CNS (4615), without sheep blood
  MIC: 0.015 µg/mL (≈ 0.0387 µM)
[3]; read-out: Minimum Inhibitory Concentration, CNS (ID-3120), with 5% sheep blood
  MIC: 0.03 µg/mL (≈ 0.0774 µM)
[3]; read-out: Minimum Inhibitory Concentration, CNS (ID-3120), without sheep blood
  MIC: 0.015 µg/mL (≈ 0.0387 µM)
[4]
  MIC: 0.008 µg/mL (≈ 0.0206 µM)
[5]; read-out: Minimum Inhibitory Concentration, CNS (ID-3941), with 5% sheep blood
  MIC: 0.06 µg/mL (≈ 0.155 µM)
[5]; read-out: Minimum Inhibitory Concentration, CNS (ID-3941), without sheep blood
  MIC: 0.03 µg/mL (≈ 0.0774 µM)
[6]; with 5% sheep blood
  MIC: 0.25 µg/mL (≈ 0.645 µM)
[6]; without sheep blood
  MIC: 0.06 µg/mL (≈ 0.155 µM)
[7]; Escherichia coli, ATCC25922, without sheep blood, read-out: Minimum Inhibitory Concentration
  MIC: 1 µg/mL (≈ 2.58 µM)
[7]; with 5% sheep blood
  Minimum Inhibitory Concentration: 1.000 µg/mL
[8]; with 5% sheep blood
  MIC: 2 µg/mL (≈ 5.16 µM)
[8]; without sheep blood
  MIC: 1 µg/mL (≈ 2.58 µM)
[9]; with 5% sheep blood
  MIC: 0.12 µg/mL (≈ 0.31 µM)
[9]; without sheep blood
  MIC: 0.06 µg/mL (≈ 0.155 µM)
[10]; with 5% sheep blood
  MIC: 0.06 µg/mL (≈ 0.155 µM)
[10]; without sheep blood
  MIC: 0.03 µg/mL (≈ 0.0774 µM)
[11]; with 5% sheep blood
  MIC: 0.12 µg/mL (≈ 0.31 µM)
[11]; without sheep blood
  MIC: 0.06 µg/mL (≈ 0.155 µM)
[12]; with 5% sheep blood
  MIC: 0.5 µg/mL (≈ 1.29 µM)
[12]; without sheep blood
  MIC: 0.12 µg/mL (≈ 0.31 µM)
[13]; with 5% sheep blood
  MIC: 0.25 µg/mL (≈ 0.645 µM)
[13]; without sheep blood
  MIC: 0.12 µg/mL (≈ 0.31 µM)
[14]; with 5% sheep blood
  MIC: 0.12 µg/mL (≈ 0.31 µM)
[14]; without sheep blood
  MIC: 0.06 µg/mL (≈ 0.155 µM)
[15]; with 5% sheep blood
  MIC: 0.25 µg/mL (≈ 0.645 µM)
[15]; without sheep blood
  MIC: 0.03 µg/mL (≈ 0.0774 µM)
[16]; with 5% sheep blood
  MIC: 0.12 µg/mL (≈ 0.31 µM)
[16]; without sheep blood
  MIC: 0.06 µg/mL (≈ 0.155 µM)
[17]; Enterococcus faecium, without sheep blood, read-out: Minimum Inhibitory Concentration
  MIC: 0.002 µg/mL (≈ 0.00516 µM)
[17]; with 5% sheep blood
  Minimum Inhibitory Concentration: 0.002 µg/mL
[18]; with 5% sheep blood
  MIC: 2 µg/mL (≈ 5.16 µM)
[18]; without sheep blood
  MIC: 1 µg/mL (≈ 2.58 µM)
[19]; Pseudomonas aeruginosa, ATCC27853, without sheep blood, read-out: Minimum Inhibitory Concentration
  MIC: 2 µg/mL (≈ 5.16 µM)
[19]; with 5% sheep blood
  Minimum Inhibitory Concentration: 2.000 µg/mL
[20]; with 5% sheep blood
  MIC: 0.004 µg/mL (≈ 0.0103 µM)
[20]; without sheep blood
  MIC: 0.002 µg/mL (≈ 0.00516 µM)
[21]; 18 h, read-out: Minimum Inhibitory Concentration, S. acralactiae (ID-4079), without sheep blood
  MIC: 0.004 µg/mL (≈ 0.0103 µM)
[21]; S. agalactiae (ID-4079), with 5% sheep blood, 18 hours, read-out: Minimum Inhibitory Concentration
  MIC: 0.015 µg/mL (≈ 0.0387 µM)
[22]; Micrococcus luteus, ATCC9341, without sheep blood, read-out: Minimum Inhibitory Concentration
  MIC: 0.002 µg/mL (≈ 0.00516 µM)
[22]; with 5% sheep blood
  Minimum Inhibitory Concentration: 0.002 µg/mL
[23]; Staphylococcus aureus (ATCC 29213), with 5% sheep blood
  MIC: 0.12 µg/mL (≈ 0.31 µM)
[23]; Staphylococcus aureus (ATCC 29213-), without sheep blood
  MIC: 0.06 µg/mL (≈ 0.155 µM)
[24]; with 5% sheep blood
  MIC: 0.06 µg/mL (≈ 0.155 µM)
[24]; without sheep blood
  MIC: 0.03 µg/mL (≈ 0.0774 µM)
[25]; with 5% sheep blood
  MIC: 0.015 µg/mL (≈ 0.0387 µM)
[25]; without sheep blood
  MIC: 0.008 µg/mL (≈ 0.0206 µM)
[26]; with 5% sheep blood
  MIC: 0.06 µg/mL (≈ 0.155 µM)
[26]; without sheep blood
  MIC: 0.03 µg/mL (≈ 0.0774 µM)
[27]; with 5% sheep blood
  MIC: 0.12 µg/mL (≈ 0.31 µM)
[27]; without sheep blood
  MIC: 0.03 µg/mL (≈ 0.0774 µM)
[28]; with 5% sheep blood
  MIC: 0.06 µg/mL (≈ 0.155 µM)
[28]; without sheep blood
  MIC: 0.03 µg/mL (≈ 0.0774 µM)
[29]; with 5% sheep blood
  MIC: 0.008 µg/mL (≈ 0.0206 µM)
[29]; without sheep blood
  MIC: 0.004 µg/mL (≈ 0.0103 µM)
[30]; with 5% sheep blood
  MIC: 0.015 µg/mL (≈ 0.0387 µM)
[30]; without sheep blood
  MIC: 0.008 µg/mL (≈ 0.0206 µM)
[31]; with 5% sheep blood
  MIC: 0.008 µg/mL (≈ 0.0206 µM)
[31]; without sheep blood
  MIC: 0.002 µg/mL (≈ 0.00516 µM)
[32]
  Conversion to the beta (quinone) form: converts to the beta form
